Reference: patent US20090099204A1, “Amide derivative, insecticide containing the same and method for application thereof as insecticide” (Mitsui Chemicals, Inc., priority 2005, published 2009)

Assays:
Format in all cases: in vivo
[1] = system: Diamondback Moth (Plutella xylostella); assay: Insecticidal Test on Diamondback Moth (Plutella xylostella); settings: Comparative Example 1; same conditions as Test Example 2
Description: Insecticidal Test on Diamondback Moth (Plutella xylostella)
(§1) A piece of cabbage leaf was immersed for 30 seconds in a liquid chemical prepared by diluting a test compound to a prescribed concentration. After air-drying, the piece was put into a 7-cm polyethylene cup and second-instar larvae of diamondback moths were released thereinto. The polyethylene cups were set in an isothermal chamber thermostated at 25° C. From the release, 6 days later, the dead and alive were counted. The test was carried out with two replications of 5 insects per a plot.

[2] = system: Onion Thrip (Thrips tabaci); settings: Comparative Example 1; same conditions as Test Example 5
Description: Insecticidal Test on Onion Thrip (Thrips tabaci)
A chemical to the prescribed concentration was dispersed on onion seedlings, air-dried, and then both the seedlings and 5 adult insects of onion thrips were put into a glass test tube (diameter; 3 cm, height: 10 cm). The resulting material was lidded. 3 days thereafter, the number of surviving insects was counted and the mortality was calculated.

[3] = system: Common Cutworm (Spodoptera litura); assay: Insecticidal Test on Common Cutworm (Spodoptera litura); settings: Comparative Example 1; same conditions as Test Example 1
Description: Insecticidal Test on Common Cutworm (Spodoptera litura)
as §1, with “common cutworms” for “diamondback moths”, “release” for “release,”

[4] = system: Western Flower Thrip (Franklinella occidentalis); assay: Insecticidal Test on Western Flower Thrip (Franklinella occidentalis); settings: Comparative Example 1; same conditions as Test Example 3
[5] = system: Melon Thrip (Thrips palmi); assay: Insecticidal Test on Melon Thrip (Thrips palmi); settings: Comparative Example 1; same conditions as Test Example 4
Text: Insecticidal Test on Melon Thrip (Thrips palmi)
Into a plastic cup (diameter: 5 cm, height: 5 cm) was poured 1% agar gel, and the reverse side of a cucumber leaf cut with a diameter of 4.5 cm was placed upward to prepare leaf disc. A chemical to the prescribed concentration was dispersed thereon using a vertical sprayer. After air-drying, 5 adult melon thrips were released thereinto and the resulting material was lidded. 3 days thereafter, the number of surviving insects was counted and the mortality was calculated.

Measured: insecticidal activity

Cc1cc(C(F)(C(F)(F)F)C(F)(F)F)ccc1NC(=O)c1cccc(NC(=O)c2ccccc2I)c1 [Compound A, N-(4-heptafluoroisopropyl-2-methyl)phenyl 3-(2-iodobenzoylamino)benzamide]
could not be confirmed: all assays above

Cc1cc(C(F)(F)F)cc(C)c1NC(=O)c1cccc(NC(=O)c2ccccc2)c1 [Compound B, N-(2,6-dimethyl-4-trifluoromethyl)phenyl 3-(benzoylamino)benzamide]
could not be confirmed: all assays above
